Reference: patent EP4775582A1, “MACROCYCLIC COMPOUND AND ANTIBODY-DRUG CONJUGATE THEREOF” (Genfleet Therapeutics (Shanghai) Inc., priority 2023, dated 2025)
Where two headings read alike, the source gives them in different places.

Key:
H441 p-ERK = experiment: Cell p-ERK assay (HTRF), NCI-H441 cells; type: cell-based, human; details: NCI-H441 cells (KRAS G12V), 3 h incubation
In short: (§1)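 AsPC-1 (10000/well) or NCI-H441 (20000/well) cells were seeded overnight and then exposed to compound for 3 h at 37 °C. Lysates were probed for ERK phospho-T202/Y204 by HTRF with a 4-hour antibody incubation. IC50 values came from four-parameter fits of inhibition against log concentration.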

AsPC-1 p-ERK = experiment: Cell p-ERK assay (HTRF), AsPC-1 cells; type: cell-based, human; details: AsPC-1 cells (KRAS G12D), 3 h incubation, read-out: AsPC-1 p-ERK IC50
In short: as §1

NCI-H441 cells = experiment: 3D cell proliferation assay (CellTiter Glo-3D), NCI-H441; type: cell-based, human; details: NCI-H441 cells (KRAS G12V), 2% FBS, 5 days, read-out: H441 AP IC50
In short: (§2)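 Cells seeded at 800 per well (AsPC-1, NCI-H441) in 2% FBS medium and incubated overnight at 37 °C, 5% CO2. Compounds added next day from 10× stock, then 5 days' further culture. Viability read by CellTiter-Glo luminescence; IC50 from four-parameter fit of inhibition versus log concentration.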

AsPC-1 cells = experiment: 3D cell proliferation assay (CellTiter Glo-3D), AsPC-1; type: cell-based, human; details: AsPC-1 cells (KRAS G12D), 3D, 2% FBS, 5 days, read-out: AsPC-1 AP IC50
In short: as §2

KRAS WT-cRAF = KRAS WT-cRAF (Homo sapiens, UniProt P01116+P62937); experiment: Assay for binding of KRAS to cRAF (HTRF, with Cyclophilin A), KRAS WT
Method: (§3) The plate was centrifuged at 1000 rpm for 1 min and then incubated in the thermostatic incubator at 20 °C for 30 min. […] The plate was centrifuged at 1000 rpm for 1 min and then incubated in the thermostatic incubator at 20 °C for 60 min. […] The working solution was added to the aforementioned assay plate at 5 µL/well. The plate was centrifuged at 1000 rpm for 1 min and then incubated in the thermostatic incubator at 20 °C for 60 min.

KRAS G12V-cRAF = KRAS G12V-cRAF (Homo sapiens, UniProt P01116+P62937, G12V); experiment: Assay for binding of KRAS to cRAF (HTRF, with Cyclophilin A), KRAS G12V
Method: as §3

[1] = KRAS WT-cRAF binding assay(nM), GPPNP-KRAS WT, IC50 values
[2] = KRAS G12V-cRAF binding assay(nM), GPPNP-KRAS G12V, IC50 values

Chain of KRAS WT-cRAF (P01116 1-188 isoform P01116-2): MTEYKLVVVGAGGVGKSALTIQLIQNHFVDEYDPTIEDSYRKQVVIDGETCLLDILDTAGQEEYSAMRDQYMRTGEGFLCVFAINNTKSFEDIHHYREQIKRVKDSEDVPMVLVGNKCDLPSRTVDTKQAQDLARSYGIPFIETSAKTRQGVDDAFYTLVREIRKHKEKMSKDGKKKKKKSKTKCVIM
Chain of KRAS WT-cRAF (P62937 whole entry): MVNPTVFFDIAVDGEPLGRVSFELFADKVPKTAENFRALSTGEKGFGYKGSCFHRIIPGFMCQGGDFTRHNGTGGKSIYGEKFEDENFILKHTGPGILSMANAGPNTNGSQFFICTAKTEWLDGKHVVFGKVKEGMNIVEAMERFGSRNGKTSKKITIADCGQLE
Chain of KRAS G12V-cRAF (P01116 1-188 isoform P01116-2 G12V): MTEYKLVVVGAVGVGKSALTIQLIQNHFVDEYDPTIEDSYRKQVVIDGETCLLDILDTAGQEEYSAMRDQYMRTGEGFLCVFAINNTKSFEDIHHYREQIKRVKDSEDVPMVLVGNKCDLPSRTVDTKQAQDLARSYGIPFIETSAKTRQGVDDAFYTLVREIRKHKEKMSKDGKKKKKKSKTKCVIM
Chain of KRAS G12V-cRAF (P62937 whole entry): as the sequence (P62937 whole entry) above

| IC50 (H441 p-ERK; Homo sapiens) | IC50 (AsPC-1 p-ERK; Homo sapiens, ASPC1) | IC50 (NCI-H441 cells; Homo sapiens, 120 h) | IC50 (AsPC-1 cells; Homo sapiens, ASPC1, 120 h) | IC50 (KRAS WT-cRAF; [1]) | IC50 (KRAS G12V-cRAF; [2]) | SMILES | IC50 (H441 p-ERK) | IC50 (AsPC-1 p-ERK) | IC50 (NCI-H441 cells) | IC50 (AsPC-1 cells) | IC50 (KRAS WT-cRAF; read-out: KRAS WT-cRAF binding assay, GPPNP-KRAS WT, IC50 values) | IC50 (KRAS G12V-cRAF; read-out: KRAS G12V-cRAF binding assay, GPPNP-KRAS G12V, IC50 values) |
| --- | --- | --- | --- | --- | --- | --- | --- | --- | --- | --- | --- | --- |
| – | – | – | – | – | – | CCn1c(-c2cc(C#CCN3CCC(C#N)(CN)CC3)c[n+]([O-])c2[C@H](C)OC)c2c3cc(ccc31)-c1csc(n1)C[C@H](NC(=O)[C@H]1[C@@H]3COC[C@@H]31)C(=O)N1CCC[C@H](N1)C(=O)OCC(C)(C)C2 (atropisomer, axis not shown; (Ra)) [Compound Z64-1, (Ra)-3-((6^3S,4S,Z)-4-((1R,5S,6r)-3-oxabicyclo[3.1.0]hexane-6-carboxamido)-1^1-ethyl-10,10-dimethyl-5,7-dioxo-6^1,6^2,6^3,6^4,6^5,6^6-hexahydro-1^1H-8-oxa-2(4,2)-thiazola-1(5,3)-indola-6(1,3)-pyridazinacycloundecaphane-1^2-yl)-5-(3-(4-(aminomethyl)-4-cyanopiperidin-1-yl)prop-1-yn-1-yl)-2-((S)-1-methoxyethyl)pyridine 1-oxide] | 5.07 nM | 9.07 nM | 5.1 nM | 3.77 nM | 31.2 nM | 4.1 nM |
| 0.15 nM | 0.28 nM | 0.16 nM | 0.32 nM | 15.3 nM | 15.2 nM | CCn1c(-c2cc(C#CCN3CCS(=O)(=O)CC3)cnc2C(C)O)c2c3cc(ccc31)-c1csc(n1)CC(NC(=O)C1C(C)C1C)C(=O)N1CCCC(N1)C(=O)OCC(C)(C)C2 (atropisomer, axis not shown; (Ra)) [Compound Z60, (1r,2R,3S)-N-((6^3S,4S,Z)-(Ra)-1^2-(5-(3-(1,1-dioxidothiomorpholino)prop-1-yn-1-yl)-2-((S)-1-hydroxyethyl)pyridin-3-yl)-1^1-ethyl-10,10-dimethyl-5,7-dioxo-6^1,6^2,6^3,6^4,6^5,6^6-hexahydro-1^1H-8-oxa-2(4,2)-thiazola-1(5,3)-indola-6(1,3)-pyridazinacycloundecaphane-4-yl)-2,3-dimethylcyclopropane-1-carboxamide] | – | – | – | – | – | – |
| 0.92 nM | 2.65 nM | 1.07 nM | 2.09 nM | 75 nM | 14.7 nM | COCCn1c(-c2cc(C#CCN3CCN(C(=O)CO)CC3)cnc2C(C)OC)c2c3cc(ccc31)-c1csc(n1)CC(NC(=O)C1C3COCC31)C(=O)N1CCCC(N1)C(=O)OCC(C)(C)C2 (atropisomer, axis not shown; (Ra)) [Compound Z31-1, (1R,5S,6r)-N-((6^3S,4S,Z)-(Ra)-1^2-(5-(3-(4-(2-hydroxyacetyl)piperazin-1-yl)prop-1-yn-1-yl)-2-((S)-1-methoxyethyl)pyridin-3-yl)-1^1-(methoxyethyl)-10,10-dimethyl-5,7-dioxo-6^1,6^2,6^3,6^4,6^5,6^6-hexahydro-1^1H-8-oxa-2(4,2)-thiazola-1(5,3)-indola-6(1,3)-pyridazinacycloundecaphane-4-yl)-3-oxabicyclo[3.1.0]hexane-6-carboxamide] | – | – | – | – | – | – |
